# Experimental data reported in PMC6272662, “Trypanocidal Activity of Long Chain Diamines and Aminoalcohols” (Molecules, 2015).
# How the values were obtained:
# in vitro = details: mouse
# Protocol: The mouse cell lines J774.2 macrophages and NCTC clone 929 fibroblasts were used and cultured in plastic culture flasks. J774.2 and NCTC-929 cells were grown using DMEM and BME without phenol-red, respectively. Both media were supplemented with 10% heat inactivated fetal calf serum, 2 mM glutamine, 100 U/mL penicillin and 100 μg/mL streptomycin. Cell cultures were maintained at 37 °C in a humidified atmosphere containing 5% CO2 and subpassaged once a week. Cells in the pre-confluence phase were harvested with an EDTA-trypsin solution for the experiments.
# Unspecific cytotoxicity was evaluated over phagocytic macrophages J774.2 cell line. To study cytotoxicity on J774.2 cells, 200 μL of a suspension of 2 × 10^5 macrophages/mL were added to 96 well flat-bottom microplates (Sigma). Cells were allowed to attach for 24 h at 37 °C and then exposed to the compounds for 72 h at the same concentrations as used for drug screening. […] Each concentration was assayed by triplicate, in independent experiments. Cytotoxicity was assessed by the Trypan Blue and XTT techniques and LC50 was calculated as described above.
# [1] = system: Trypanosoma cruzi epimastigotes strain MG (MHOM/CO/04/MG); assay: Epimastigote susceptibility assay, MG strain (Trypan Blue and XTT); assay type: cell-based; details: for MG Strain SI (Selectivity Index: LC50-macrophages/IC50-epimastigotes): MG strain epimastigotes vs J774.2 macrophages; for IC50 / MG Strain PNFX (potency relative to NFX = IC50-NFX/IC50-compound; also called NI): MG strain; for IC50: 72 h at 28 °C, 0.1-70.0 µM, mean ± SEM
# Protocol: (§1) For in vitro studies, the strains MHOM/CO/04/MG (MG), MHOM/CO/05/JEM (JEM) and CL Brener strain clone B5 (CL-B5) were used. The MG and JEM strains correspond to Group I and Haplotype Ia isolates from two Colombian patients in the acute phase, and CL-B5 is a strain stably transfected with Escherichia coli β-galactosidase gene (lacZ). Epimastigotes were grown in plastic culture flasks at 28 °C, in axenic liver-infusion tryptose (LIT) growth medium, supplemented with 10% heat inactivated (30 min at 56 °C) foetal calf serum (FCS; Sigma), […] hemin (Sigma), and 10 µg/mL gentamycin (Sigma) and harvested in the exponential phase for conducting the experiments. Cultures were continuously maintained in logarithmic growth by weekly passages.
# (§2) Three different strains of T. cruzi were used for the primary screening on epimastigote forms. For strains MG and JEM, the screening assay was performed with approximately 1 × 10^5 epimastigotes in logaritmic growth phase in 200 μL of supplemented LIT medium per well in 96-well flat bottoned plates (Costar, Corning, Cornig, NY, USA). […] The plates were incubated for 72 h at 28 °C and all experimental conditions were evaluated in triplicate in three independent experiments. The epimastigote growth inhibition was microscopically determined by the Trypan Blue dye exclusion assay and XTT (2,3-bis-(2-methoxy-4-nitro-5-sulfophenyl)-5-[(phenylamino)carbonyl]-2H-tetrazolium hydroxide). Regarding the first method, an aliquot from every culture was suspended in 0.4% trypan blue solution for 5 min and cell viability was determined under microscope by counting live parasites in each condition in a Neubauer chamber. Anti-epimastigote activity percentage was calculated as (Parasite counts in control wells-Parasite counts in experimental wells) × 100/Parasite counts in control wells. Trypanocidal activity over both strains was also measured adding 50 μL of XTT solution per well to obtain a final concentration of 0.3 mg/mL. The plate was re-incubated 24 h in the dark at 37 °C and orange formazan solution formed, was spectrophotometrically quantified at 450 nm with a 630 nm reference filter, using an Ear400FT ELISA reader.
# (§3) Furthermore the Selectivity Index (SI = mammalian cell LC50/epimastigote IC50) for each compound was calculated to compare the antiprotozoal activity with its respective mammalian cell cytotoxicity.
# [2] = system: Trypanosoma cruzi epimastigotes strain JEM (MHOM/CO/05/JEM); assay: Epimastigote susceptibility assay, JEM strain (Trypan Blue and XTT); assay type: cell-based; details: for JEM Strain SI (Selectivity Index: LC50-macrophages/IC50-epimastigotes): JEM strain epimastigotes vs J774.2 macrophages; for IC50 / JEM Strain PNFX (potency relative to NFX = IC50-NFX/IC50-compound; also called NI): epimastigotes, JEM strain; for IC50: 72 h at 28 °C, 0.1-70.0 µM, mean ± SEM
# Protocol: as §1, §2, §3
# [3] = Trypanosoma cruzi, 72 h, epimastigotes
"IC50 [1, 3] [µM]",MG Strain PNFX (potency relative to NFX = IC50-NFX/IC50-compound; also called NI) ([1]; epimastigotes),"IC50 ([2]; Trypanosoma cruzi, 72 h) [µM]",JEM Strain PNFX (potency relative to NFX = IC50-NFX/IC50-compound; also called NI) [2],IC50 ([1]; epimastigotes) [µM],IC50 [2] [µM],Structure (SMILES),CC50 at 72 h (in vitro) [µM],MG Strain SI (Selectivity Index: LC50-macrophages/IC50-epimastigotes) [1],JEM Strain SI (Selectivity Index: LC50-macrophages/IC50-epimastigotes) [2],"times greater activity on the MG strain than the JEM strain ([1]; epimastigotes, MG vs JEM IC50)"
> 70,–,50.3 ± 0.1,0.3,–,–,CCCCCCCCCCCCCCCCC(CO)N(CCCC)CCCC (stereo not drawn) [Compound 11],–,–,–,–
34.4 ± 1.8,0.6,28.8 ± 1.2,0.5,–,–,CCCCCCCCCCCCCCC(N)COCc1ccccc1 (stereo not drawn) [Compound 12],27.7 ± 0.1,0.8,1.0,–
> 70,–,> 70,–,–,–,CCCCCCCCCCCCCCC(COCc1ccccc1)NCCCC (stereo not drawn) [Compound 13],–,–,–,–
13.9 ± 1,1.5,6.7 ± 2.1,2.2,–,–,CCCCCCCCCCCCCCCCC(CN)NC(=O)OC(C)(C)C (stereo not drawn) [Compound 16],24.1 ± 0.2,1.7,3.6,–
26.7 ± 0.25,0.8,30.6 ± 0.65,0.5,–,–,CCCCCCCCCCCCCCC(CNCCCCCC)NC(=O)OC(C)(C)C (stereo not drawn) [Compound 17],4.2 ± 0.05,0.2,0.1,–
> 70,–,> 70,–,> 70,> 70,CCCCCCCCCCCCCCC(CN(CCCCCC)CCCCCC)NC(=O)OC(C)(C)C (stereo not drawn) [Compound 18],–,–,–,–
19.2 ± 2.9,1.1,26.6 ± 0.7,0.6,–,–,CCCCCCCCCCCCCCC(N)CN (stereo not drawn) [Compound 19],78.1 ± 0.85,4.1,2.9,–
42.2,0.6,> 70,0.3,32.9 ± 1.25,48.8 ± 1.05,CCCCCCCCCCCCCCC(N)CNCCCCCC (stereo not drawn) [Compound 20],5 ± 0.1,0.2,0.1,–

# The remaining lines, values behind:
Structure (SMILES),"IC50 [1, 3] [µM]",MG Strain PNFX (potency relative to NFX = IC50-NFX/IC50-compound; also called NI) ([1]; epimastigotes),"IC50 ([2]; Trypanosoma cruzi, 72 h) [µM]",JEM Strain PNFX (potency relative to NFX = IC50-NFX/IC50-compound; also called NI) [2],IC50 ([1]; epimastigotes) [µM],IC50 [2] [µM],CC50 at 72 h (in vitro) [µM],MG Strain SI (Selectivity Index: LC50-macrophages/IC50-epimastigotes) [1],JEM Strain SI (Selectivity Index: LC50-macrophages/IC50-epimastigotes) [2],"times greater activity on the MG strain than the JEM strain ([1]; epimastigotes, MG vs JEM IC50)"
CCCCCCCCCCC(N)CO (stereo not drawn) [Compound 1],14.5 ± 3.15,1.5,33 ± 1.7,0.4,–,–,14 ± 0.9,1.0,0.4,–
CCCCCCCCCCCCCCCCC(N)CO (stereo not drawn) [Compound 3],46.2 ± 2.5,0.5,9.9 ± 1.65,1.5,–,–,3 ± 0.24,0.1,0.3,–
CCCCCCCCCCC(CO)NCCCCCC (stereo not drawn) [Compound 4],21.1 ± 1.25,1.0,37.2 ± 1.25,0.4,–,–,36.1 ± 2.3,1.7,1.0,–
CCCCCCCCCCCCCCC(CO)NCCCCCC (stereo not drawn) [Compound 7],6,3.5,> 70,–,6.1 ± 0.15,> 70,8.2 ± 1.55,1.3,–,11
CCCCCCCCCCCCCCCCC(CO)NCCCCCC (stereo not drawn) [Compound 8],> 70,–,> 70,–,–,–,26 ± 0.2,–,–,–
CCCCCCCCCCCCCCC(CO)N(CC)CC (stereo not drawn) [Compound 10],> 70,–,> 70,–,–,–,5.6 ± 0.27,–,–,–
